Measured values reported in US10364263B2, “Cyclic phosphates and cyclic phosphoramidates for the treatment of neurologic disorders” (Retrophin, Inc., priority 2015, dated 2019).

Experiment: physchem
Conditions: buffer, phosphate buffered saline, 10 mM phosphate buffer pH 7.5, 37° C.
[1] = pH 7.5, t1/2 (h) Diastereoisomer A, Diastereoisomer A = upfield shift in the 31P NMR
[2] = pH 7.5, t1/2 (h) Diastereoisomer B, Diastereoisomer B

Procedure: To measure chemical stability in aqueous solution, the half-life (t1/2), or time needed for the concentration to decrease by half, was determined for select compounds in phosphate buffered saline solution. Compounds were dissolved in a solution containing 10 mM phosphate buffer (pH 7.5) and 5% of D2O to a final concentration of −1 mM. All spectra were obtained at 37° C. on a Bruker Avance 600 NMR spectrometer equipped with an inverse broad-band probe with z-gradients. Data were obtained every 15 min for a total time period of 4 h or longer, according to the observed stability. ^31P NMR was performed at 242.55 MHz, with gated decoupling of the protons. An observation frequency range of 14619.9 Hz and 32 K complex data points were used for acquisition. A pulse angle of 90° and a 4-sec pulse cycle were utilized. Thirty-two accumulations were obtained before Fourier transformation of the free induction decay. ^1H NMR spectra were acquired using the 1DNOESY experiment with water presaturation for better solvent suppression. An observation frequency range of 12019.23 Hz, a 10-sec pulse cycle, and 32 K complex data points were used for acquisition. Sixty-four scans were added prior to Fourier transformation. Integral data were obtained using the TopSpin software.
Stability was determined based on analysis of disappearance of the compounds as a function of incubation time. Quantification of test compounds was measured as a peak area relative to an internal standard. The elimination constant, k, was calculated by plotting mean disappearance values on a semi-logarithmic scale and fitting with a best fit linear regression. The half-life (t1/2) expressed in hours was derived using Equation 1: t1/2=ln2/(−k). Equation 1:

| SMILES | half-life [1] | half-life [2] |
| --- | --- | --- |
| COC(=O)CCNC(=O)[C@@H]1OP(=O)(N[C@@H](C)C(=O)OC)OCC1(C)C (stereo partly drawn) [compound 5, methyl 3-((4R)-2-(((S)-1-methoxy-1-oxopropan-2-yl)amino)-5,5-dimethyl-2-oxido-1,3,2-dioxaphosphinane-4-carboxamido)propanoate] | 40 h | 40 h |
| COC(=O)CCNC(=O)[C@@H]1OP(=O)(N[C@H](C)C(=O)OC)OCC1(C)C (stereo partly drawn) [compound 16, methyl 3-((4R)-2-(((R)-1-methoxy-1-oxopropan-2-yl)amino)-5,5-dimethyl-2-oxido-1,3,2-dioxaphosphinane-4-carboxamido)propanoate] | > 80 h | > 80 h |
| COC(=O)CCNC(=O)[C@@H]1OP(=O)(NCCN2CCCC2)OCC1(C)C (stereo partly drawn) [compound 109, methyl 3-((4R)-5,5-dimethyl-2-oxido-2-((2-(pyrrolidin-1-yl)ethyl)amino)-1,3,2-dioxaphosphinane-4-carboxamido)propanoate] | 48 h | 15.4 h |
